From patent US10266526B2, “Substituted 1,2,3-triazoles as SMYD inhibitors for treating cancer” (EPIZYME, INC., priority 2014, dated 2019)

target: SMYD2 (Homo sapiens (Human), UniProt Q9NRG4); assay: SMYD2 biochemical assay (SMYD2 enzyme assay on peptide substrate, 3H-SAM Flashplate); details: SMYD2 Biochem IC50, IC50 values are an average of n = 1 to n = 50
Sequence (Q9NRG4 whole entry): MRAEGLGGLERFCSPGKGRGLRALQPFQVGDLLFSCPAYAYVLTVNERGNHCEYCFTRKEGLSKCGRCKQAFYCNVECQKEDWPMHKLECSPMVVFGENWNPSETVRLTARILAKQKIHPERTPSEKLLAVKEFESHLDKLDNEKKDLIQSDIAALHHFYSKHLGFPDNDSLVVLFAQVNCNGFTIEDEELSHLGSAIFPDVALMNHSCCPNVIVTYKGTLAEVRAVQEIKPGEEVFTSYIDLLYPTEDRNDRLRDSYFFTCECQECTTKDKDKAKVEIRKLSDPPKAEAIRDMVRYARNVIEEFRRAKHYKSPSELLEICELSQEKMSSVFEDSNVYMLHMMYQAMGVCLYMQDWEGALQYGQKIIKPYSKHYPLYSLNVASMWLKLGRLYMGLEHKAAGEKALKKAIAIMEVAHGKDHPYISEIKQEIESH

Row | IC50 [nM] | SMILES
1 | 414 | C[C@H](c1ccc(OCc2ccccc2)cc1)N1CC(NC(=O)c2cn(C3CC3)nn2)C1 (single isomer, unassigned) [compound 788]

same assay, conditions: read-out: SMYD2 Biochem IC50; IC50 values are an average of n = 1 to n = 50

Row | SMILES | IC50 [nM]
2 | O=C(NC1CN(CCO)C1)c1cn(C2CC2)nn1 [compound 670, 1-cyclopropyl-N-[1-(2-hydroxyethyl)azetidin-3-yl]-1H-1,2,3-triazole-4-carboxamide] | 4530
3 | CC(c1ccc(F)cc1)N1CC(NC(=O)c2cn(C3CC3)nn2)C1 (stereo not drawn) [compound 747, 1-cyclopropyl-N-{1-[1-(4-fluorophenyl)ethyl]azetidin-3-yl}-1H-1,2,3-triazole-4-carboxamide] | 1920
4 | CC(NC(=O)c1cc(C2CC2)cnn1)C1CNC1 (stereo not drawn) [compound 839, N-[1-(azetidin-3-yl)ethyl]-5-cyclopropylpyridazine-3-carboxamide] | 18200
5 | CC(C)N1CC(NC(=O)c2cn(CCN)nn2)C1 [compound 723, 1-(2-aminoethyl)-N-[1-(propan-2-yl)azetidin-3-yl]-1H-1,2,3-triazole-4-carboxamide] | > 50000
6 | O=C(NC1CN(Cc2cccc(OCCO)c2)C1)c1cn(C2CC2)nn1 [compound 734, 1-cyclopropyl-N-(1-{[3-(2-hydroxyethoxy)phenyl]methyl}azetidin-3-yl)-1H-1,2,3-triazole-4-carboxamide] | 2310
7 | CC(c1cccc(OCC(C)(C)O)c1Cl)N1CC(NC(=O)c2cn(C3CC3)nn2)C1 (stereo not drawn) [compound 956, N-(1-(1-(2-chloro-3-(2-hydroxy-2-methylpropoxy)phenyl)ethyl)azetidin-3-yl)-1-cyclopropyl-1H-1,2,3-triazole-4-carboxamide] | 2600
8 | Cn1cnc(CN2CC(NC(=O)c3cc(C4CC4)cnn3)C2)c1Cl [compound 648, N-{1-[(5-chloro-1-methyl-1H-imidazol-4-yl)methyl]azetidin-3-yl}-5-cyclopropylpyridazine-3-carboxamide] | 7330
9 | CC(C)N1CCC(NC(=O)c2cc(C3CC3)cnn2)CC1 [compound 916, 5-cyclopropyl-N-[1-(propan-2-yl)piperidin-4-yl]pyridazine-3-carboxamide] | 29100
10 | CC(c1c[nH]cn1)N1CC(NC(=O)c2cn(C3CC3)nn2)C1 (stereo not drawn) [compound 785, 1-cyclopropyl-N-{1-[1-(1H-imidazol-4-yl)ethyl]azetidin-3-yl}-1H-1,2,3-triazole-4-carboxamide] | 2590
11 | COc1c(CO)cccc1CN1CC(NC(=O)c2cn(C3CC3)nn2)C1 [compound 772, 1-cyclopropyl-N-(1-{[3-(hydroxymethyl)-2-methoxyphenyl]methyl}azetidin-3-yl)-1H-1,2,3-triazole-4-carboxamide] | 10800
12 | CN(C)CCNC(=O)c1cn(C2CC2)nn1 [compound 834, 1-cyclopropyl-N-[2-(dimethylamino)ethyl]-1H-1,2,3-triazole-4-carboxamide] | > 50000
13 | CC(c1ccc(OCC2CCNCC2)cc1)N1CC(NC(=O)c2cn(C3CC3)nn2)C1 (stereo not drawn) [compound 925, 1-cyclopropyl-N-(1-(1-(4-(piperidin-4-ylmethoxy)phenyl)ethyl)azetidin-3-yl)-1H-1,2,3-triazole-4-carboxamide] | 4300
14 | O=C(NC1CNC1)c1cn(C2CC2)nn1 [compound 657, N-(azetidin-3-yl)-1-cyclopropyl-1H-1,2,3-triazole-4-carboxamide] | 10400
15 | CCC(c1ccc(C(F)(F)F)cc1)N1CC(NC(=O)c2cn(C3CC3)nn2)C1 (stereo not drawn) [compound 700, 1-cyclopropyl-N-(1-{1-[4-(trifluoromethyl)phenyl]propyl}azetidin-3-yl)-1H-1,2,3-triazole-4-carboxamide] | 2670
16 | C[C@H](c1ccccc1)N1CC(NC(=O)c2cc(C3CC3)cnn2)C1 [compound 647, 5-cyclopropyl-N-{1-[(1R)-1-phenylethyl]azetidin-3-yl}pyridazine-3-carboxamide] | 7800
17 | CC(c1ccc2c(cnn2C)c1)N1CC(NC(=O)c2cn(C3CC3)nn2)C1 (stereo not drawn) [compound 952, 1-cyclopropyl-N-(1-(1-(1-methyl-1H-indazol-5-yl)ethyl)azetidin-3-yl)-1H-1,2,3-triazole-4-carboxamide] | 1630

Other lines, results leading:

Row | IC50 [nM] | SMILES
18 | 72 | COc1cccc(C(C)N2CC(NC(=O)c3cc(C4CC4)cnn3)C2)c1Cl (stereo not drawn) [compound 965, N-(1-(1-(2-chloro-3-memoxyphenyl)ethyl)azetidin-3-yl)-5-cyclopropylpyridazine-3-carboxamide]
19 | 1090 | O=C(NC1CN(Cc2ccc(OCc3cscn3)cc2)C1)c1cn(C2CC2)nn1 [compound 846, 1-cyclopropyl-N-(1-{[4-(1,3-thiazol-4-ylmethoxy)phenyl]methyl}azetidin-3-yl)-1H-1,2,3-triazole-4-carboxamide]
20 | 172 | CC(c1ccc(OCc2ccccc2)cc1)N1CC(NC(=O)c2cn(C3CC3)nn2)C1 (stereo not drawn) [compound 692, N-(1-{1-[4-(benzyloxy)phenyl]ethyl}azetidin-3-yl)-1-cyclopropyl-1H-1,2,3-triazole-4-carboxamide]
21 | 585 | CC(C)N1CC(NC(=O)c2cn(C3CC3)nn2)C1 [compound 663, 1-cyclopropyl-N-[1-(propan-2-yl)azetidin-3-yl]-1H-1,2,3-triazole-4-carboxamide]
22 | 159 | COc1ccc(COc2ccc(C(C)N3CC(NC(=O)c4cn(C5CC5)nn4)C3)cc2)cc1 (stereo not drawn) [compound 855, 1-cyclopropyl-N-[1-(1-{4-[(4-methoxyphenyl)methoxy]phenyl}ethyl)azetidin-3-yl]-1H-1,2,3-triazole-4-carboxamide]
23 | 425 | CCC(c1ccccc1F)N1CC(NC(=O)c2cn(C3CC3)nn2)C1 (stereo not drawn) [compound 798, 1-cyclopropyl-N-{1-[1-(2-fluorophenyl)propyl]azetidin-3-yl}-1H-1,2,3-triazole-4-carboxamide]
24 | 1390 | O=C(NC1CN(Cc2ccc(C(O)Cc3ccccc3)cc2)C1)c1cn(C2CC2)nn1 (stereo not drawn) [compound 983, 1-cyclopropyl-N-(1-(4-(1-hydroxy-2-phenylethyl)benzyl)azetidin-3-yl)-1H-1,2,3-triazole-4-carboxamide]
25 | 1450 | COc1cccc(C(C)N2CC(NC(=O)c3cn(C4CC4)nn3)C2)c1 (stereo not drawn) [compound 679, 1-cyclopropyl-N-{1-[1-(3-methoxyphenyl)ethyl]azetidin-3-yl}-1H-1,2,3-triazole-4-carboxamide]
26 | 1010 | CC(c1ccccc1C(F)(F)F)N1CC(NC(=O)c2cn(C3CC3)nn2)C1 (stereo not drawn) [compound 741, 1-cyclopropyl-N-(1-{1-[2-(trifluoromethyl)phenyl]ethyl}azetidin-3-yl)-1H-1,2,3-triazole-4-carboxamide]
27 | 16 | Cc1ccc(Cn2cc(CN3CC(NC(=O)c4cn(C5CC5)nn4)C3)cn2)cc1 [compound 993, 1-cyclopropyl-N-(1-((1-(4-methylbenzyl)-1H-pyrazol-4-yl)methyl)azetidin-3-yl)-1H-1,2,3-triazole-4-carboxamide]
28 | 528 | O=C(NC1CN(Cc2cnn(CCc3ccccc3)c2)C1)c1cc(C2CC2)cnn1 [compound 807, 5-cyclopropyl-N-(1-{[1-(2-phenylethyl)-1H-pyrazol-4-yl]methyl}azetidin-3-yl)pyridazine-3-carboxamide]
29 | 28 | CSc1ccc(Cn2cc(CN3CC(NC(=O)c4cn(C5CC5)nn4)C3)cn2)cc1 [compound 941, 1-cyclopropyl-N-(1-((1-(4-(methylthio)benzyl)-1H-pyrazol-4-yl)methyl)azetidin-3-yl)-1H-1,2,3-triazole-4-carboxamide]
30 | 745 | CC(C)N1CC(NC(=O)c2cc(C3CC3)cnn2)C1 [compound 645, 5-cyclopropyl-N-[1-(propan-2-yl)azetidin-3-yl]pyridazine-3-carboxamide]
31 | 69.5 | COc1cccc(C(C)N2CC(NC(=O)c3cn(C4CC4)nn3)C2)c1Cl (stereo not drawn) [compound 803, N-{1-[1-(2-chloro-3-methoxyphenyl)ethyl]azetidin-3-yl}-1-cyclopropyl-1H-1,2,3-triazole-4-carboxamide]
32 | 88 | COc1ccc(C(C)N2CC(NC(=O)c3cn(C4CC4)nn3)C2)c(Cl)c1 (stereo not drawn) [compound 1002, N-(1-(1-(2-chloro-4-methoxyphenyl)ethyl)azetidin-3-yl)-1-cyclopropyl-1H-1,2,3-triazole-4-carboxamide]
33 | 13 | O=C(NC1CN(Cc2cnn(Cc3ccccc3)c2)C1)c1cc(C2CC2)ccn1 [compound 966, N-(1-((1-benzyl-1H-pyrazol-4-yl)methyl)azetidin-3-yl)-4-cyclopropylpicolinamide]
34 | 41.6 | CC(c1cccc(OCCO)c1Cl)N1CC(NC(=O)c2cc(C3CC3)cnn2)C1 (stereo not drawn) [compound 652, N-(1-{1-[2-chloro-3-(2-hydroxyethoxy)phenyl]ethyl}azetidin-3-yl)-5-cyclopropylpyridazine-3-carboxamide]
35 | 72 | O=C(NC1CN(Cc2cnn(Cc3ccccc3)c2)C1)c1nnc(C2CC2)s1 [compound 1007, N-(1-((1-benzyl-1H-pyrazol-4-yl)methyl)azetidin-3-yl)-5-cyclopropyl-1,3,4-thiadiazole-2-carboxamide]
36 | 940 | Cn1cc(CN2CC(NC(=O)c3cc(C4CC4)cnn3)C2)c(Cl)n1 [compound 833, N-{1-[(3-chloro-1-methyl-1H-pyrazol-4-yl)methyl]azetidin-3-yl}-5-cyclopropylpyridazine-3-carboxamide]
37 | 130 | COc1cccc(C(C)N2CC(NC(=O)c3cc(C4CC4)ccn3)C2)c1OC (stereo not drawn) [compound 1005, 4-cyclopropyl-N-(1-(1-(2,3-dimethoxyphenyl)ethyl)azetidin-3-yl)picolinamide]
38 | 340 | CC[C@@H](c1cccc(Cl)c1)N1CC(NC(=O)c2cn(C3CC3)nn2)C1 [compound 837, N-{1-[(1S)-1-(3-chlorophenyl)propyl]azetidin-3-yl}-1-cyclopropyl-1H-1,2,3-triazole-4-carboxamide]
39 | 1400 | O=C(NC1CN(Cc2cnn(CC3CCC3)c2)C1)c1cn(C2CC2)nn1 [compound 1001, N-(1-((1-(cyclobutylmethyl)-1H-pyrazol-4-yl)methyl)azetidin-3-yl)-1-cyclopropyl-1H-1,2,3-triazole-4-carboxamide]
